For this assay, the system named is HOS-TE85. Description: Antiproliferative activity against human MNNG/HOS cells assessed as inhibition of cell growth incubated for 72 hrs by CCK8 assay. In kind it is functional, cell-based. The settings on record: HOS-TE85, 72 h.

Bounds are passed on as bounds.

Regarding `COCCCCNC(=O)c1cccc(C2N(c3ccccn3)C(=O)C[S+]2[O-])n1` (stereo not given), the 50% inhibitory concentration (IC50) was above 1 µM. The value for `O=C(NCCOCc1ccccc1)c1cccc(C2N(c3ccccn3)C(=O)CS2(=O)=O)n1` (stereo not given) was above 1 µM; that for `O=C(NCCCCc1ccccc1)c1cccc(C2N(c3ccc4c(c3)OCO4)C(=O)CS2(=O)=O)c1` (stereo not given) was 0.073 µM. The value for `O=C(NCCCCc1ccccc1)c1cccc(C2N(c3ccccc3)C(=O)C[S+]2[O-])c1` (stereo not given) was 3.11 µM; that for `COCCCCNC(=O)c1cccc([C@H]2N(c3ccc(F)cn3)C(=O)CS2(=O)=O)n1` was 0.137 µM; that for `COC(=O)CCNC(=O)c1cccc(C2N(c3ccccn3)C(=O)CS2(=O)=O)n1` (stereo not given) was above 1 µM. The result for `Cc1cc(N2C(=O)C[S+]([O-])C2c2cccc(C(=O)NCCCCc3ccccc3)c2)no1` (stereo not given) reads 0.354 µM; that for `COCCCCNC(=O)c1cccc([C@H]2N(c3ncccc3OC)C(=O)CS2(=O)=O)n1`, 0.071 µM; that for `O=C(NCCCCc1ccccc1)c1cccc(C2N(c3cccc4ccccc34)C(=O)CS2(=O)=O)c1` (stereo not given), above 10 µM. As for `CC(C)(C)OCCCCNC(=O)c1cccc(C2N(c3ccccn3)C(=O)CS2(=O)=O)n1` (stereo not given), the half-maximal inhibitory concentration (IC50) was above 1 µM.

For the compound `COCCCCNC(=O)c1cccc([C@@H]2N(c3ncccc3OC)C(=O)CS2(=O)=O)n1`, the IC50 is 0.113 µM. The result for `COCCCCNC(=O)c1cccc(C2N(c3ncccc3OC)C(=O)C[S+]2[O-])n1` (stereo not given) reads above 1 µM; that for `O=C(NCCCCc1ccccc1)c1cccc(C2N(c3cccc4cccnc34)C(=O)CS2(=O)=O)c1` (stereo not given), 0.025 µM.

Turning to `O=C(NCCCCc1ccccc1)c1cccc(C2N(c3ccc[n+]([O-])c3)C(=O)CS2(=O)=O)c1` (stereo not given), the IC50 was above 10 µM. For `Cc1ccnc(N2C(=O)C[S+]([O-])C2c2cccc(C(=O)NCCCCn3cccn3)c2)c1` (stereo not given), the concentration for half-maximal inhibition (IC50) turned out to be 3.12 µM.

Take `O=C(NCCCCc1ccccc1)c1cccc(C2N(C3CCOCC3)C(=O)CS2(=O)=O)c1` (stereo not given): the 50% inhibitory concentration (IC50) is above 10 µM. The result for `CCCCNC(=O)c1cccc(C2N(c3ccccn3)C(=O)CS2(=O)=O)n1` (stereo not given) reads 0.42 µM; that for `Cc1ccnc(N2C(=O)CS(=O)(=O)C2c2cccc(C(=O)NCCCCc3ccccc3)n2)c1` (stereo not given), 0.033 µM. The value for `CCCCNC(=O)c1cccc(C2N(c3ccccc3)C(=O)CS2(=O)=O)c1` (stereo not given) was above 10 µM; that for `O=C(NCCCCc1ccccc1)c1cccc(C2N(c3cccc(F)c3)C(=O)CS2(=O)=O)c1` (stereo not given) was 0.103 µM; that for `C#Cc1cc(C(=O)NCCCCc2ccccc2)cc(C2N(c3ccccn3)C(=O)CS2(=O)=O)c1` (stereo not given) was 0.032 µM. The value for `O=C(NCCCCc1ccccc1)c1cccc(C2N(c3cccc(F)n3)C(=O)CS2(=O)=O)n1` (stereo not given) was above 1 µM. Take `Cc1cccc(N2C(=O)CS(=O)(=O)C2c2cccc(C(=O)NCCCCc3ccccc3)c2)c1` (stereo not given): the 50% inhibitory concentration (IC50) was determined as 0.23 µM. `COC(=O)CCCCNC(=O)c1cccc(C2N(c3ccccn3)C(=O)CS2(=O)=O)n1` (stereo not given): the IC50 amounted to 0.225 µM. For the compound `O=C(NCCCCc1ccccc1)c1cccc(C2N(c3ccccc3)C(=O)C[S+]2[O-])n1` (stereo not given), the IC50 came to 0.26 µM.

In the case of `O=C(NCCCCc1ccccc1)c1cccc(C2N(Cc3ccccc3)C(=O)CS2(=O)=O)c1` (stereo not given), the half-maximal inhibitory concentration (IC50) was above 10 µM. For the compound `O=C(NCCCCc1ccccc1)c1cccc(C2N(c3ccccc3)C(=O)CS2(=O)=O)n1` (stereo not given), the IC50 is above 10 µM. Take `O=C(NCCCCc1ccccc1)c1cccc(C2N(c3ccc4ccccc4c3)C(=O)CS2(=O)=O)c1` (stereo not given): the IC50 is 0.474 µM. The value for `COCCCCNC(=O)c1cccc(C2N(c3ncccc3OC)C(=O)CS2(=O)=O)c1` (stereo not given) was above 1 µM; that for `O=C(CCCCc1ccccc1)Nc1cccc(C2N(c3ccccc3)C(=O)CS2(=O)=O)c1` (stereo not given) was 0.508 µM; that for `O=C(NCCCCc1ccccc1)c1cccc(C2N(c3ncccc3O)C(=O)CS2(=O)=O)n1` (stereo not given) was 0.045 µM.

As to `O=C(CCCNC(=O)c1cccc(C2N(c3ccccn3)C(=O)CS2(=O)=O)n1)Nc1ccccc1` (stereo not given), the concentration for half-maximal inhibition (IC50) is above 1 µM. The value for `C#Cc1cc(C(=O)NCCCCc2ccccc2)cc(C2N(c3ccccc3)C(=O)CS2(=O)=O)c1` (stereo not given) was 0.009 µM. The result for `O=C(NCCCCc1ccccc1)c1cccc(C2N(CCc3ccccc3)C(=O)C[S+]2[O-])c1` (stereo not given) reads above 10 µM. The value for `COCCCCNC(=O)c1cccc([C@@H]2N(c3ccc(F)cn3)C(=O)CS2(=O)=O)n1` was 0.272 µM. With `O=C(NCCCCc1ccccc1)c1cccc(C2N(c3ccccc3)C(=O)CS2(=O)=O)c1` (stereo not given), the half-maximal inhibitory concentration (IC50) was determined as 0.15 µM.

As to `O=C(NCCCCn1cccn1)c1cccc(C2N(c3ccccn3)C(=O)CS2(=O)=O)n1` (stereo not given), the IC50 turned out to be 0.979 µM.

As to `O=C(NCCCCc1ccccc1)c1cccc(C2N(c3cccc(Cl)c3)C(=O)CS2(=O)=O)c1` (stereo not given), the half-maximal inhibitory concentration (IC50) was 0.075 µM.

Consider `Cc1ccnc(N2C(=O)C[S+]([O-])C2c2cccc(C(=O)NCCCCc3ccccc3)c2)c1` (stereo not given), for which the concentration for half-maximal inhibition (IC50) worked out at 0.074 µM. As to `O=C(NCCCCc1ccccc1)c1cccc(C2N(c3ncccc3F)C(=O)CS2(=O)=O)n1` (stereo not given), the concentration for half-maximal inhibition (IC50) was found to be 0.025 µM. The value for `Cc1ccnc(N2C(=O)CS(=O)(=O)C2c2cccc(C(=O)NCCCCc3ccccc3)c2)c1` (stereo not given) was 0.071 µM; that for `O=C(NCCCCc1ccccc1)c1cccc(C2N(c3cccc(Cl)c3)C(=O)CS2(=O)=O)n1` (stereo not given) was 0.43 µM; that for `Cc1ccnc(N2C(=O)C[S+]([O-])C2c2cccc(C(=O)NCCCCn3cccn3)n2)c1` (stereo not given) was 8.29 µM. The value for `COC(=O)c1cccc(C2SCC(=O)N2c2ccccn2)n1` (stereo not given) was above 1 µM. The result for `O=C(NCCCC(=O)N1CCCC1)c1cccc(C2N(c3ccccn3)C(=O)CS2(=O)=O)n1` (stereo not given) reads above 1 µM; that for `O=C(NCCCCc1ccccc1)c1cccc(C2N(c3ccc(-c4ccccc4)cc3)C(=O)CS2(=O)=O)c1` (stereo not given), above 10 µM. Take `COC(=O)c1cc(C(=O)NCCCCc2ccccc2)cc(C2N(c3ccccc3)C(=O)CS2(=O)=O)c1` (stereo not given): the half-inhibitory concentration (IC50) worked out at 0.06 µM. The result for `O=C(NCCCCc1ccccc1)c1ccc(C2N(c3ccccc3)C(=O)CS2(=O)=O)o1` (stereo not given) reads 0.041 µM; that for `COCCCNC(=O)c1cccc(C2N(c3ccccn3)C(=O)CS2(=O)=O)n1` (stereo not given), 0.926 µM.

Regarding `O=C(NCCCCc1ccccc1)c1cc(C(=O)NCCCCc2ccccc2)cc(C2N(c3ccccc3)C(=O)CS2(=O)=O)c1` (stereo not given), the half-maximal inhibitory concentration (IC50) was above 10 µM. Regarding `COc1ccccc1N1C(=O)CS(=O)(=O)C1c1cccc(C(=O)NCCCCc2ccccc2)n1` (stereo not given), the IC50 is 0.004 µM. The result for `COCCCCNC(=O)c1cccc(C2N(c3ccc(F)cn3)C(=O)CS2(=O)=O)n1` (stereo not given) reads 0.283 µM. For the compound `COc1cccc(N2C(=O)CS(=O)(=O)C2N(CCCCc2ccccc2)C(=O)c2ccccc2)c1` (stereo not given), the IC50 came out at 0.068 µM. The result for `Cc1cccc(N2C(=O)C[S+]([O-])C2c2cccc(C(=O)NCCCCc3ccccc3)c2)c1` (stereo not given) reads 0.177 µM; that for `Cc1cccc(N2C(=O)CS(=O)(=O)C2c2cccc(C(=O)NCCCCc3ccccc3)n2)n1` (stereo not given), 0.775 µM; that for `CCN(CC)C(=O)CCCNC(=O)c1cccc(C2N(c3ccccn3)C(=O)CS2(=O)=O)n1` (stereo not given), above 1 µM. For the compound `O=C(NCCCCc1ccccc1)c1cccc(C2N(c3cccc(F)c3)C(=O)CS2(=O)=O)n1` (stereo not given), the IC50 stood at 0.017 µM. The result for `COc1cccnc1N1C(=O)CS(=O)(=O)C1c1cccc(C(=O)NCCCCc2ccccc2)c1` (stereo not given) reads 0.016 µM. The value for `O=C(NCCCCc1ccccc1)c1ccc(C2N(c3ccccc3)C(=O)CS2(=O)=O)cc1` (stereo not given) was above 10 µM.

For `O=C(NCCCCO)c1cccc(C2N(c3ccccn3)C(=O)CS2(=O)=O)n1` (stereo not given), the IC50 is above 1 µM.

These data come from ChEMBL document CHEMBL5518196, “Discovery of potent thiazolidin-4-one sulfone derivatives for inhibition of proliferation of osteosarcoma in vitro and in vivo” (Eur J Med Chem, 2024).
